Key:
J774 cells = assay: Live cell fluorescence microscopy of J774 cells; assay type: cell-based, mouse; conditions: for cellular uptake and distribution of Alexa488-labelled OVA: with or without parallel PCI treatment, FIG. 9A
Method: Fifty thousand J774.1 cells (ATCC no. TIB-67 mouse monocyte macrophage cell line) were seeded out on no. 1.5 glass coverslips (Glasswarenfabrik Karl Hecht KG, Sondheim, Germany) in 4-well plates overnight. The cells were incubated with 0.05 or 1,0 μg/ml TPCS2a for 18 hours and washed three times in drug-free culture medium prior to incubation with 25 μg/ml OVA-Alexa488 for four hours. Cells were subsequently washed in ice-cold PBS with Ca^2+ and Mg^2+ prior to microscopy. Images of cellular localization and PCI-induced cytosolic release of OVA was obtained by epi-fluorescence microscopy using a Plan-Apochromat 63×/1.40 Oil differential interference contrast (DIC) objective or 40×/0.95 Plan-Apochromat phase contrast (Korr Ph3 M27) objective with a Zeiss Axioimager Z.1 microscope (Carl Zeiss, Oberkochen, Germany). Fluorescence of Alexa488-labelled OVA was obtained by using a 470/40 nm band pass (BP) excitation filter with a beam splitter at 495 nm and a 525/50 nm BP emission filter. TPCS2a fluorescence was obtained by using a 395-440 nm BP excitation filter with a beam splitter at 460 nm, and a 620 nm long pass filter. Micrographs were recorded with a digital AxioCam MRm camera and processed and analysed by use of the Axiovision Software (Carl Zeiss).

bone marrow DCs = assay: Fluorescence microscopy of cytosolic antigen release in dendritic cells; assay type: cell-based, C57BL/6 mice; conditions: incubated with TPCS2a and Alexa488-labelled OVA
Method: Cells (J774.1 (ATCC no. TIB-67 mouse monocyte macrophage cell line) or bone marrow DCs from C57BL/6 mice) were incubated with 0.05 or 1.0 μg/ml TPCS2a and 25 μg/ml OVA-Alexa488 for 18 hours and washed three times in drug-free culture medium prior to incubation for four hours before light activation (3 min LumiSource exposure). The cells were subsequently washed in ice-cold PBS with Ca^2+ and Mg^2+ prior to microscopy. Images of cellular localization and PCI-induced cytosolic release of OVA were obtained by epi-fluorescence microscopy using a Plan-Apochromat 63×/1.40 Oil differential interference contrast (DIC) objective or 40×/0.95 Plan-Apochromat phase contrast (Korr Ph3 M27) objective with a Zeiss Axioimager Z.1 microscope (Carl Zeiss, Oberkochen, Germany). Fluorescence of Alexa488-labelled OVA was obtained by using a 470/40 nm band pass (BP) excitation filter with a beam splitter at 495 nm and a 525/50 nm BP emission filter. TPCS2a fluorescence was obtained by using a 395-440 nm BP excitation filter with a beam splitter at 460 nm, and a 620 nm long pass filter. Micrographs were recorded with a digital AxioCam MRm camera and processed and analysed by use of the Axiovision Software (Carl Zeiss).

[1] = tested on: SIINFEKL-specific CD8 T cells; assay: PCI immunisation of OT-I-spiked mice, SIINFEKL pentamer flow cytometry (Example 2); assay type: in vivo, C57BL/6 mice; conditions: TPCS2a at 10, 25, 50, 100 and 250 μg; data not shown
Method: One day prior to the immunisation, spleens and lymph nodes were isolated from female OT-1 mice, and erythrocytes were removed by lysis (RBC Lysing Buffer Hybri-Max from Sigma-Aldrich) from the homogenised cell suspensions. The remaining cells were washed in PBS, filtered through 70 micron nylon strainers, and 2×10^6 OT-1 cells were administered by intravenous injection into recipient female C57BLJ6 mice; the adoptive transfer of SIINFEKL-specific CD8 T cells facilitates monitoring of the immune response by flow cytometry. One day or 8 hours later, mice were bled by tail bleeding, and the blood was collected in heparin-containing tubes for analysis of the baseline frequency of OVA-specific CD8 T cells.
(§1) Then, the mice were shaved on the abdominal area, and the vaccines, consisting of OVA or of a mixture of OVA and TPCS2a, were injected intradermally using syringes with 29G needles. The vaccines were kept light protected and used within 60 minutes of preparation. The vaccines were given in two injections of 50 μl each, on the left and right side of the abdominal mid line. OVA was tested at 10 to 100 μg per dose. The TPCS2a dose was 7.5 to 250 μg.
(§2) On day 0, prior to vaccination and on various days thereafter (e.g. day 6, 7, 8, 9, 14, 23, as indicated) mice were bled by tail bleeding and erythrocytes were removed by lysis, before analysis of antigen-specific CD8 T cells by flow cytometry. At the end of the experiment (typically 11, 12, 14 or 23 days), the mice were euthanized and the splenocytes analysed ex vivo. At various time points after the TPCS2a injection (0-48 hours), the mice were anaesthetised by intraperitoneal injection of a mixture of ketamine (25 mg/kg body weight) and xylazin (4 mg/kg) and placed on a light source (for illumination and activation of the photosensitiser TPCS2a). The light dose was 6 minutes, if not otherwise stated. The whole procedure is illustrated in the scheme of FIG. 6A. The illumination of mice using LumiSource™ is imaged in FIG. 6B.
The frequency of OVA-specific CD8 T-cells in blood was monitored by staining the cells with anti-CD8 antibody and H-2K^b/SIINFEKL ProS pentamer (Proimmune, Oxford, UK) for analysis by flow cytometry. The activation status of the cells was further analysed by testing the expression of CD44 and CD69 by flow cytometry. Intracellular staining for IFN-γ was done after overnight stimulation of splenocytes in 24-well plates with the CD8 epitope OVA257-264 (SIINFEKL) at 37 ° C. Brefeldin A was added during the last 4 hours. The cells were then washed and fixed with 4% formaldehyde in PBS for 10 min on ice. Anti-CD16/32 was added to block unspecific binding to Fc receptors. The cells were then permeabilised with 0.1% NP40 in PBS for 3 min and washed before staining with anti-IFN-γ, anti-CD8 and ant-CD44 antibodies (eBioscience or BD Pharmingen). The cells were acquired using FACSCanto (BD Biosciences, San Jose, USA) and analysed using FlowJo 8.5.2 software (Tree Star, Inc., Ashland, Oreg.).

[2] = Local reaction at the illuminated injection site (Example 2); assay type: in vivo, C57BL/6 mice; conditions: higher TPCS2a doses; days 1-3 after illumination; data not shown
Method: as §1, §2

| Substance | cellular uptake and distribution of Alexa488-labelled OVA (J774 cells) | localisation of antigen and photosensitiser (bone marrow DCs; before light, FIG. 5A) | antigen distribution after light activation (bone marrow DCs; FIG. 5B) | OVA-specific immune response with increasing TPCS2a dose [1] | relative localisation of antigen and TPCS2a after light activation (J774 cells; FIG. 9B) | local inflammation after illumination [2] |
| --- | --- | --- | --- | --- | --- | --- |
| Alexa488-labelled OVA: Alexa488-labelled OVA protein for fluorescence microscopy | located close to the cell surface in concise spherical shaped bodies | – | – | – | – | – |
| tetraphenyl chlorin disulfonate [TPCS2a] | diffuse green fluorescence | co-localisation of antigen and photosensitiser in DC endosomes | release of the antigen into the cytosol could be observed over 15 minutes | increased the measured OVA-specific immune response | co-localised | more local inflammation with transient erythema |
